# US20230318003A1, “REDOX FLOW BATTERY AND AQUEOUS-BASED SOLUTION” (RIVUS AB, priority 2020, published 2023)
# How the values were obtained:
# [1] = Cyclic voltammetry of the compounds of Examples 3, 4a and 4b; assay type: physicochemical; details: for Redox potential E^0′ vs. Ag/AgCl: single redox process; for Decomposition during cyclic voltammetry: both acidic and neutral electrolytes; for Redox potential vs. Ag/AgCl, first redox process / Redox potential vs. Ag/AgCl, second redox process: neutral electrolyte
# Protocol: All CV measurements were carried out in a custom built 10 ml three-electrode electrochemical cell. The lower part of the cell holds the electrolyte of interest. In the upper part are ports to hold the working electrode, reference electrode and auxiliary electrode as well as inlet and outlet for N2 gas. […] Cyclic voltammograms were recorded at scan rates of 10 mVs^−1, 20 mVs^−1, 50 mVs^−1, 100 mVs^−1 and 250 mVs^−1 at room temperature. Prior to measurements, the electrolyte was de-aerated by continuously purging with N2 gas for 10-15 minutes and maintaining a N2 flow-blanket throughout the experiment to minimize any environmental contamination. Also, 80% of the ohmic drop was compensated for during the experiment using a positive feedback-loop.
# [2] = Solubility testing, saturated solutions in milli-Q water at ambient temperature; details: thermodynamic from solid
# Protocol: The solutions were centrifuged at 12,500 rpm for 30 minutes. 100 μl of the supernatant were pipetted in triplicates from each of the solution into separate empty vials of known weights. The content of these vails were left to dry in a vacuum oven overnight. The final weights of the vials were determined and the amount of each of the compounds calculated from the weight difference. Solubility in mmol/L for each compound was finally determined.
# Water solubility of NDI = assay type: physicochemical
# [3] = Titration of tertiary NDI in water with 1 M sodium hydroxide; assay type: physicochemical; details: 50 ml 15.6 mM tertiary NDI in water
# From the text: The quaternization is only necessary if the molecule is to be examined at higher pH values, since the tertiary amine sidechains are protonated for pH values less than about 8 (pKa≈8.1) as shown by the titration curve in FIG. 1. In FIG. 1 it can be seen that the molecule deprotonates above pH 8 and precipitates out of solution. For actual flow battery applications, i.e. redox flow battery according to the present invention, the last reaction step is thus possible to omit.
# Diffusion NMR of NDI = assay type: physicochemical
# From the text: Addition of three protons to each NDI molecule at pH values as high as 3 is unlikely, since the third proton would be at a weakly basic carbonyl. This is further supported by the lack of buffering at lower pHs in the titration curve in FIG. 1.
# [4] = Cyclic voltammetry of NDI at different pH values; assay type: physicochemical; details: pH below 3
# From the text: The electrochemistry of NDI was examined by CV at a range of different pH values, to gain understanding of the electron transfer reaction mechanism. FIG. 2a and FIG. 2b show cyclic voltammograms (CVs) for NDI at pH 7 and 0, respectively. […] The broadness of the first reduction at pH 7, is assumed to be due to the possibility for the first electron to add at different positions of NDI.
# A plot of the reduction potentials for NDI at different pHs is seen in FIG. 3. […] The second reduction, the triangles in the figure, has a slope of 91 mV/pH at pH below 3, indicating a one electron-1.5 proton relationship, according to the Nernst equation.
# [5] = Bulk electrolysis cycling of NDI; assay type: physicochemical; details: 25 mM in pH 6.4 phosphate buffer, twelve cycles at 15 mA, roughly a week
# Protocol: A solution of 25 mM NDI in pH 6.4 sodium phosphate buffer was cycled in a bulk electrolysis cell, where all of the material is reduced, as opposed to CV and RDE, where only a small fraction of the material is probed. A galvanostatic BE setting was used, where a constant current of 40 mA was applied. The electrolysis was intermittently paused, allowing for CVs to be collected to be able to quantify the amount of NDI that has been reduced. The peak heights from the CVs were correlated to the passed current, and it was seen that the complete capacity of NDI could be accessed using bulk electrolysis. […] For NDI, the reduction of the molecule lowers the monomer concentration in the solution, and the dimerization equilibrium is shifted in the direction of dimer separation.
# After the initial sweep, continuous cycling at a current of 15 mA was performed for twelve cycles. A CV was collected after the cycling had finished, roughly a week after starting. […] Apart from that, the NDI molecule is synthesized via a one-step reaction, at room temperature in water with an almost 100% yield. It is water soluble up to 0.7 M, and has a lower reduction potential than any of the other examined molecules, resulting in a high battery voltage in the application.
# [6] = 0.5M sodium phosphate buffer of pH 7, scan rate 10 mVs^−1
# [7] = 0.5M sodium phosphate buffer of pH 7, scan rate 20 mVs^−1
# [8] = 0.5M sodium phosphate buffer of pH 7, scan rate 50 mVs^−1
# [9] = 0.5M sodium phosphate buffer of pH 7, scan rate 100 mVs^−1
# [10] = 0.5M sodium phosphate buffer of pH 7, scan rate 250 mVs^−1
# [11] = 1M sulfuric acid, scan rate 10 mVs^−1
# [12] = 1M sulfuric acid, scan rate 20 mVs^−1
# [13] = 1M sulfuric acid, scan rate 50 mVs^−1
# [14] = 1M sulfuric acid, scan rate 100 mVs^−1
# [15] = 1M sulfuric acid, scan rate 250 mVs^−1
# [16] = acidic electrolyte (1 M sulfuric acid)
molecule,measurement,setting,value
"4,9-dibromo-2,7-bis(3-(dimethylamino)propyl)benzo[Imn][3,8]phenanthroline-1,3,6,8(2H,7H)-tetraone [Compound 1]",E^0′ vs. Ag/AgCl,[1]; [6],−0.43 V
same,peak current ratio ipa/ipc,[1]; [6],0.82 ± 0.04
same,ΔEp,[1]; [6],49.21 ± 8.49 mV
same,E^0′ vs. Ag/AgCl,[1]; [7],−0.43 V
same,peak current ratio ipa/ipc,[1]; [7],0.80 ± 0.05
same,ΔEp,[1]; [7],51.87 ± 9.16 mV
same,E^0′ vs. Ag/AgCl,[1]; [8],−0.43 V
same,peak current ratio ipa/ipc,[1]; [8],0.74 ± 0.06
same,ΔEp,[1]; [8],61.48 ±12.09 mV
same,E^0′ vs. Ag/AgCl,[1]; [9],−0.43 V
same,peak current ratio ipa/ipc,[1]; [9],0.69 ± 0.07
same,ΔEp,[1]; [9],68.59 ± 14.05 mV
same,E^0′ vs. Ag/AgCl,[1]; [10],−0.43 V
same,peak current ratio ipa/ipc,[1]; [10],0.63 ± 0.07
same,ΔEp,[1]; [10],86.49 ± 20.99 mV
same,E^0′ vs. Ag/AgCl,[1]; [11],−0.13 V
same,peak current ratio ipa/ipc,[1]; [11],0.91 ± 0.05
same,ΔEp,[1]; [11],63.67 ± 10.03 mV
same,E^0′ vs. Ag/AgCl,[1]; [12],−0.13 V
same,peak current ratio ipa/ipc,[1]; [12],0.92 ± 0.01
same,ΔEp,[1]; [12],63.31 ± 10.97 mV
same,E^0′ vs. Ag/AgCl,[1]; [13],−0.13 V
same,peak current ratio ipa/ipc,[1]; [13],0.89 ± 0.02
same,ΔEp,[1]; [13],64.97 ± 10.46 mV
same,E^0′ vs. Ag/AgCl,[1]; [14],−0.13 V
same,peak current ratio ipa/ipc,[1]; [14],0.87 ± 0.00
same,ΔEp,[1]; [14],66.31 ± 9.29 mV
same,E^0′ vs. Ag/AgCl,[1]; [15],−0.13 V
same,peak current ratio ipa/ipc,[1]; [15],0.82 ± 0.01
same,ΔEp,[1]; [15],71.25 ± 11.85 mV
same,Redox potential E^0′ vs. Ag/AgCl,[1]; [16],−0.13 V
same,Redox potential E^0′ vs. Ag/AgCl,[1]; neutral electrolyte (0.5 M sodium phosphate buffer pH 7),−0.43 V
"C[N+](C)(C)CCCN1C(=O)c2ccc3c4c(ccc(c24)C1=O)C(=O)N(CCC[N+](C)(C)C)C3=O [Compound 2, Benzo[Imn][3,8]phenanthroline-2,7-dipropanaminium, 1,3,6,8-tetrahydro-N,N,N,N′,N′,N′-hexamethyl-1,3,6,8-tetraoxo-, dichloride]",Redox potential E^0′ vs. Ag/AgCl,[1]; [16],~−0.32 V
same,Decomposition during cyclic voltammetry,[1],no evidence of decomposition
same,"Redox potential vs. Ag/AgCl, first redox process",[1]; first redox process,~−0.30 V
same,"Redox potential vs. Ag/AgCl, second redox process",[1]; second redox process,~−0.63 V
same,solubility,"[2]; Average, average of tests 1-3",678 mM
same,solubility,"[2]; Test 1, milli-Q water",653 mM
same,solubility,"[2]; Test 2, milli-Q water",689 mM
same,solubility,"[2]; Test 3, milli-Q water",691 mM
"C[N+](C)(C)CCCN1C(=O)c2cc(Br)c3c4c(cc(Br)c(c24)C1=O)C(=O)N(CCC[N+](C)(C)C)C3=O [Compound 3, 3,3′-(4,9-dibromo-1,3,6,8-tetraoxo-1,3,6,8-tetrahydrobenzo[Imn][3,8]phenanthroline-2,7-diyl)bis(N,N,N-trimethylpropan-1-aminium) chloride]","Potential vs. Ag/AgCl, first pair of peaks","[1]; acidic electrolyte, first redox process",~−0.13 V
same,"Potential vs. Ag/AgCl, second pair of peaks","[1]; acidic electrolyte, second redox process",~−0.38 V
same,Decomposition during cyclic voltammetry,[1],no evidence of decomposition
same,"Redox potential vs. Ag/AgCl, first redox process",[1]; first redox process,−0.05 V
same,"Redox potential vs. Ag/AgCl, second redox process",[1]; second redox process,−0.65 V
same,solubility,"[2]; Average, average of tests 1-3",149 mM
same,solubility,"[2]; Test 1, milli-Q water",142 mM
same,solubility,"[2]; Test 2, milli-Q water",151 mM
same,solubility,"[2]; Test 3, milli-Q water",154 mM
"CN(C)CCCN1C(=O)c2ccc3c4c(ccc(c24)C1=O)C(=O)N(CCCN(C)C)C3=O [NDI, 2,7-bis(3-(dimethylamino)propyl)benzo[Imn][3,8]phenanthroline-1,3,6,8(2H,7H)-tetraone]",Water solubility,Water solubility of NDI,up to 0.7 M
same,pKa of tertiary amine sidechains,[3],≈ 8.1
same,Diffusion coefficient,Diffusion NMR of NDI; acid solution,2.57 ×10^−6 cm^2 s^−1
same,Diffusion coefficient,Diffusion NMR of NDI; neutral solution,2.34 ×10^−6 cm^2 s^−1
same,Slope of second reduction potential versus pH,[4],91 mV/pH
same,Material degradation after cycling (CV before vs after),[5],no or little material degradation
